The results in this text go back to ChEMBL document CHEMBL4304773, “Nitroimidazole-containing compounds and their antibacterial and antitubercular activities” (2019).

Holding throughout (format): functional
The test system of one assay is Streptococcus pyogenes. As to the kind of experiment: Antibacterial activity against Streptococcus pyogenes.
For assay [1], the system named is Staphylococcus aureus. As to the kind of experiment: Antibacterial activity against Staphylococcus aureus.
The subject of assay [2] is Escherichia coli. As to the kind of experiment: Antibacterial activity against Escherichia coli infected in mouse.
The subject of assay [3] is Helicobacter pylori. As to the kind of experiment: Antibacterial activity against Helicobacter pylori NCTC 11637.
For assay [4], the system named is Helicobacter pylori. Nature of the assay: Antibacterial activity against Helicobacter pylori.
Assay [5] relates to Escherichia coli. Nature of the assay: Antibacterial activity against Escherichia coli ATCC 25922 after 24 hrs by NCCLS method. The note with it: ATCC 25922, 24 h.
Assay [6] deals with Staphylococcus aureus. As to the kind of experiment: Antibacterial activity against Staphylococcus aureus ATCC 25923 after 24 hrs by NCCLS method. Conditions: ATCC 25923, 24 h.
A further assay deals with Bacillus subtilis. Nature of the assay: Antibacterial activity against Bacillus subtilis ATCC 530 after 24 hrs by NCCLS method. Conditions: ATCC 530, 24 h.
Another assay deals with Pseudomonas aeruginosa. As to the kind of experiment: Antibacterial activity against Pseudomonas aeruginosa ATCC 27853 after 24 hrs by NCCLS method. The note with it: ATCC 27853, 24 h.

The structures appear in SMILES notation. Values after ≈ are worked out from the molar mass of the structure shown.

`CCN1CCN(Cn2nc(Cn3cc([N+](=O)[O-])nc3C)oc2=S)CC1`: the MIC against Streptococcus pyogenes and in the assay on Staphylococcus aureus [1] was 184 to 2890 µM (≈ 67.6 to 1060 µg/mL) throughout.

With `O=C(O)c1cn(C2CC2)c2cc(N3CCNCC3)c(F)cc2c1=O` [CIPROFLOXACIN], inhibition of growth against Streptococcus pyogenes (MIC) required 189 µM (≈ 62.6 µg/mL). In the assay with Escherichia coli [2], it took a dose of 4.53 mg/kg to reach the 50% effect level (ED50).

Take `Cc1nc([N+](=O)[O-])cn1Cc1nn(CNc2ccc(-c3ccccc3)cc2)c(=S)o1`: the minimal inhibitory concentration (MIC) with Streptococcus pyogenes and with Staphylococcus aureus [1] was 184 to 2890 µM (≈ 77.7 to 1220 µg/mL) each time.

On to `Cc1nonc1CNCCn1c([N+](=O)[O-])cnc1C`, for which the MIC90 with Helicobacter pylori [3] and in the assay with Helicobacter pylori [4] was 0.5 to 32 µg/mL (≈ 1.88 to 120 µM) in each case.

With `Cc1nc([N+](=O)[O-])cn1Cc1nn(CNc2ccc(Br)cc2)c(=S)o1`, the MIC in the assay on Streptococcus pyogenes and in the assay with Staphylococcus aureus [1] was 184 to 2890 µM (≈ 78.2 to 1230 µg/mL) each time.

In the case of `Cc1nc([N+](=O)[O-])cn1Cc1nn(CNc2ccc(Cl)cc2)c(=S)o1`, the minimum inhibitory concentration (MIC) in the assay with Streptococcus pyogenes and with Staphylococcus aureus [1] was 184 to 2890 µM (≈ 70.1 to 1100 µg/mL) in each case.

For `Cc1ccc(-n2nc(C)c(/C=N/NC(=O)Cn3c([N+](=O)[O-])cnc3C)c2Oc2ccc(F)cc2)cc1`, the MIC against Escherichia coli [5], in the assay with Staphylococcus aureus [6], against Bacillus subtilis and in the assay on Pseudomonas aeruginosa was 3.12 to 50 µg/mL (≈ 6.35 to 102 µM) throughout.

Consider `Cc1nc([N+](=O)[O-])cn1Cc1nn(CNc2ccc(F)cc2)c(=S)o1`, for which the MIC in the assay with Streptococcus pyogenes and with Staphylococcus aureus [1] was 184 to 2890 µM (≈ 67 to 1050 µg/mL) throughout.

`Cc1ccc(Oc2c(/C=N/NC(=O)Cn3c([N+](=O)[O-])cnc3C)c(C)nn2-c2ccccc2)cc1`: the MIC in the assay with Escherichia coli [5], with Staphylococcus aureus [6], against Bacillus subtilis and in the assay on Pseudomonas aeruginosa was 3.12 to 50 µg/mL (≈ 6.59 to 106 µM) throughout.

As to `Cc1nn(-c2ccccc2)c(Oc2ccc(Cl)cc2)c1/C=N/NC(=O)Cn1c([N+](=O)[O-])cnc1C`, the MIC with Escherichia coli [5], in the assay with Staphylococcus aureus [6], in the assay on Bacillus subtilis and in the assay with Pseudomonas aeruginosa was 3.12 to 50 µg/mL (≈ 6.32 to 101 µM) each time.

Take `CCc1ccc(NCn2nc(Cn3cc([N+](=O)[O-])nc3C)oc2=S)cc1`: the MIC in the assay on Streptococcus pyogenes and in the assay on Staphylococcus aureus [1] was 184 to 2890 µM (≈ 68.9 to 1080 µg/mL) throughout.

Take `COc1ccc(Oc2c(/C=N/NC(=O)Cn3c([N+](=O)[O-])cnc3C)c(C)nn2-c2ccc(C)cc2)cc1`: the MIC with Escherichia coli [5], in the assay on Staphylococcus aureus [6], in the assay with Bacillus subtilis and against Pseudomonas aeruginosa was 3.12 to 50 µg/mL (≈ 6.2 to 99.3 µM) throughout.

Regarding `Cc1nn(-c2ccccc2)c(Oc2ccccc2)c1/C=N/NC(=O)Cn1c([N+](=O)[O-])cnc1C`, the minimum inhibitory concentration (MIC) in the assay on Escherichia coli [5], in the assay on Staphylococcus aureus [6], with Bacillus subtilis and in the assay with Pseudomonas aeruginosa was 3.12 to 50 µg/mL (≈ 6.79 to 109 µM) throughout.

For `Cc1cc([N+](=O)[O-])ccc1NCn1nc(Cn2cc([N+](=O)[O-])nc2C)oc1=S`, the MIC with Streptococcus pyogenes and against Staphylococcus aureus [1] was 184 to 2890 µM (≈ 74.6 to 1170 µg/mL) each time.

On to `Cc1ccc(Oc2c(/C=N/NC(=O)Cn3c([N+](=O)[O-])cnc3C)c(C)nn2-c2ccc(C)cc2)cc1`, for which the MIC in the assay with Escherichia coli [5], in the assay with Staphylococcus aureus [6], against Bacillus subtilis and in the assay on Pseudomonas aeruginosa was 3.12 to 50 µg/mL (≈ 6.4 to 103 µM) each time.

Turning to `Cc1nc([N+](=O)[O-])cn1Cc1nn(CNc2ccccc2)c(=S)o1`, the MIC against Streptococcus pyogenes and against Staphylococcus aureus [1] was 184 to 2890 µM (≈ 63.7 to 1000 µg/mL) throughout.

Take `Cc1ccc(-n2nc(C)c(/C=N/NC(=O)Cn3c([N+](=O)[O-])cnc3C)c2Oc2ccccc2)cc1`: the MIC with Escherichia coli [5], against Staphylococcus aureus [6], against Bacillus subtilis and against Pseudomonas aeruginosa was 3.12 to 50 µg/mL (≈ 6.59 to 106 µM) each time.

As for `NC[C@H]1O[C@H](O[C@H]2[C@H](O)[C@@H](O[C@H]3O[C@H](CO)[C@@H](O)[C@H](N)[C@H]3O)[C@H](N)C[C@@H]2N)[C@H](N)[C@@H](O)[C@@H]1O` [BEKANAMYCIN], the MIC with Escherichia coli [5], in the assay with Staphylococcus aureus [6], with Bacillus subtilis and in the assay on Pseudomonas aeruginosa was 1.56 to 3.12 µg/mL (≈ 3.23 to 6.45 µM) each time.

For the compound `Cc1nc([N+](=O)[O-])cn1Cc1nn(CN2CCN(C)CC2)c(=S)o1`, the MIC with Streptococcus pyogenes and with Staphylococcus aureus [1] was 184 to 2890 µM (≈ 65 to 1020 µg/mL) each time.

Take `COc1ccc(Oc2c(/C=N/NC(=O)Cn3c([N+](=O)[O-])cnc3C)c(C)nn2-c2ccccc2)cc1`: the minimal inhibitory concentration (MIC) in the assay on Escherichia coli [5], against Staphylococcus aureus [6], in the assay with Bacillus subtilis and with Pseudomonas aeruginosa was 3.12 to 50 µg/mL (≈ 6.37 to 102 µM) in each case.

As usually defined, the MIC is the lowest concentration that inhibits growth of the organism. As a reminder, the ED50 is the midpoint of the dose-response relation. High values mean weaker potency, low ones greater potency. Usually MIC90 stands for the lowest concentration that inhibits either 90% of growth or 90% of the strains tested, depending on the study.
